Source: ChEMBL document CHEMBL1201862, “PubChem BioAssay data set” (2004)
Structures can show the parent of a compound that is named as a salt.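 Method: 48-hour compound exposure of cells in 96-well plates, five concentrations, linear interpolation of endpoints. Abbreviation: GI50, concentration required for 50% inhibition of growth.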 The source made the active and inactive calls. Cut-off read from the data, not from the text of the source: active = GI50 up to about 1.1 µM and inactive = higher.

Experiments:
Test in all cases: inhibition of tumour cell growth, NCI panel, 48 h
SR = system: SR
MCF7 = system: MCF7
A498 = system: A498
OVCAR-3 = system: OVCAR-3
OVCAR-4 = system: OVCAR-4
PC-3 = system: PC-3
SF-295 = system: SF-295
T47D = system: T47D
UACC-62 = system: UACC-62
HOP-62 = system: HOP-62
HCT-116 = system: HCT-116
SW-620 = system: SW-620
SN12C = system: SN12C
MDA-MB-231 = system: MDA-MB-231
SK-MEL-28 = system: SK-MEL-28
NCI-H226 = system: NCI-H226
NCI/ADR-RES = system: NCI/ADR-RES
U-251 = system: U-251
UACC-257 = system: UACC-257
SNB-75 = system: SNB-75

SMILES	GI50 (SR)	GI50 (MCF7)	GI50 (A498)	GI50 (OVCAR-3)	GI50 (OVCAR-4)	GI50 (PC-3)	GI50 (SF-295)	GI50 (T47D)	GI50 (UACC-62)	GI50 (HOP-62)	GI50 (HCT-116)	GI50 (SW-620)	GI50 (SN12C)	GI50 (MDA-MB-231)	GI50 (SK-MEL-28)	GI50 (NCI-H226)	GI50 (NCI/ADR-RES)	GI50 (U-251)	GI50 (UACC-257)	GI50 (SNB-75)
C[N+]1(C)CCc2cc(O)c(O)cc2C1Cc1ccc(O)c(O)c1 (configuration not stated)	34.8 µM (inactive)	19.8 µM (inactive)	> 100 µM (inactive)	69 µM (inactive)	22.1 µM (inactive)	> 100 µM (inactive)	> 100 µM (inactive)	23 µM (inactive)	29.9 µM (inactive)	> 100 µM (inactive)	22.4 µM (inactive)	28.4 µM (inactive)	38.2 µM (inactive)	31.1 µM (inactive)	99.8 µM (inactive)	39.2 µM (inactive)	79.4 µM (inactive)	> 100 µM (inactive)	31.2 µM (inactive)	
N=C(N)c1ccc(C(NC(=O)CNS(=O)(=O)c2ccc3ccccc3c2)P(=O)(Oc2ccccc2)Oc2ccccc2)cc1 (configuration not stated)	29.4 µM (inactive)	54 µM (inactive)		> 100 µM (inactive)	> 100 µM (inactive)	37.8 µM (inactive)		65.3 µM (inactive)	44.1 µM (inactive)	51.9 µM (inactive)	37.8 µM (inactive)	53.2 µM (inactive)	27.7 µM (inactive)	41.2 µM (inactive)	> 100 µM (inactive)	17.7 µM (inactive)	69.5 µM (inactive)	39.4 µM (inactive)	> 100 µM (inactive)	27 µM (inactive)
Cc1cccc(NC(=S)Nc2ccc(Cl)cc2)n1	> 100 µM (inactive)	> 100 µM (inactive)	> 100 µM (inactive)		> 100 µM (inactive)	> 100 µM (inactive)	> 100 µM (inactive)	> 100 µM (inactive)	> 100 µM (inactive)	> 100 µM (inactive)	> 100 µM (inactive)	> 100 µM (inactive)		> 100 µM (inactive)	> 100 µM (inactive)	> 100 µM (inactive)	> 100 µM (inactive)	> 100 µM (inactive)	> 100 µM (inactive)	> 100 µM (inactive)
CN(C)CCOc1ccc(/C(=C(/CCCl)c2ccccc2)c2ccccc2)cc1 [TOREMIFENE CITRATE]	3.23 µM (inactive)	1.58 µM (inactive)		11.9 µM (inactive)	17.3 µM (inactive)	16.4 µM (inactive)	15 µM (inactive)	11.6 µM (inactive)		15.5 µM (inactive)	16.7 µM (inactive)	16.5 µM (inactive)	16.7 µM (inactive)	16.4 µM (inactive)	16 µM (inactive)	19.1 µM (inactive)	13.7 µM (inactive)	17.8 µM (inactive)	20.3 µM (inactive)	11.9 µM (inactive)
COc1cc(O)c2c(=O)c(O)c(-c3ccc(O)c(O)c3)oc2c1 [RHAMNETIN]	13.3 µM (inactive)	17.8 µM (inactive)	3.68 µM (inactive)	3.9 µM (inactive)	0.403 µM (active)	19.7 µM (inactive)	21.2 µM (inactive)	19.6 µM (inactive)	7.91 µM (inactive)	14.6 µM (inactive)	14.6 µM (inactive)	10.8 µM (inactive)		10.7 µM (inactive)	6.76 µM (inactive)		8.55 µM (inactive)	4.86 µM (inactive)	13 µM (inactive)	
CN(C)c1c(Cl)c(=O)oc2c1ccc1nc(-c3ccccc3)sc12	> 100 µM (inactive)	57.7 µM (inactive)	> 100 µM (inactive)	> 100 µM (inactive)	> 100 µM (inactive)	> 100 µM (inactive)	> 100 µM (inactive)	> 100 µM (inactive)	64.6 µM (inactive)	98.9 µM (inactive)	> 100 µM (inactive)	> 100 µM (inactive)	> 100 µM (inactive)	> 100 µM (inactive)	> 100 µM (inactive)	> 100 µM (inactive)	> 100 µM (inactive)	> 100 µM (inactive)	> 100 µM (inactive)	
CC1(C)C2CCC3CC(CCC#N)CCC3C21C#N (configuration not stated)	> 100 µM (inactive)	> 100 µM (inactive)	> 100 µM (inactive)	> 100 µM (inactive)	> 100 µM (inactive)	> 100 µM (inactive)	> 100 µM (inactive)	> 100 µM (inactive)	> 100 µM (inactive)	> 100 µM (inactive)	> 100 µM (inactive)	> 100 µM (inactive)	> 100 µM (inactive)	> 100 µM (inactive)	> 100 µM (inactive)	> 100 µM (inactive)	> 100 µM (inactive)	> 100 µM (inactive)	> 100 µM (inactive)	
Cn1c(=O)c2[nH]c(N=O)nc2n(C)c1=O		> 100 µM (inactive)	> 100 µM (inactive)	> 100 µM (inactive)	> 100 µM (inactive)	> 100 µM (inactive)	> 100 µM (inactive)	> 100 µM (inactive)	> 100 µM (inactive)	> 100 µM (inactive)	> 100 µM (inactive)	> 100 µM (inactive)	> 100 µM (inactive)	> 100 µM (inactive)	> 100 µM (inactive)	> 100 µM (inactive)	> 100 µM (inactive)	> 100 µM (inactive)	> 100 µM (inactive)	> 100 µM (inactive)
